Source: patent US10414734B2, “5-hydroxyalkylbenzimidazoles as mIDH1 inhibitors” (BAYER PHARMA AKTIENGESELLSCHAFT, priority 2015, dated 2019)

biological target: IDH1 R132H enzyme (Homo sapiens (Human), UniProt O75874, R132H); assay: Mutant IDH1 R132H biochemical assay; settings: luminescent NADPH consumption readout; 1.5 nM enzyme, 1 μM NADPH, 250 μM α-KG, 30 min, 32° C.
Experimental: Mutant IDH1 R132H Biochemical Assay
mIDH1 catalyzes the NADPH-dependent reduction of alpha-ketoglutarate (α-KG) to (2R)-2-hydroxyglutarate (2-HG). NADPH consumption was measured by luminescent readout.
The biochemical reactions were performed at 32° C. in 384-well plates using a reaction volume of 41 μL and the following assay buffer conditions: 50 mM Tris pH 7.5, 100 mM NaCl, 20 mM MgCl2, 0.05% BSA, 0.01% Brij, 1 μM NADPH, and 250 μM α-KG. The IDH1 R132H enzyme was used in a final concentration of 1.5 nM. Test compounds were used in a concentration range between 0.002 and 10 μM. The final DMSO concentration was 2.4%.
The reaction was incubated for 30 minutes, then 40 μL of detection mix (0.75 μg/ml Luciferase, 0.02 U/ml Oxidoreductase, 4 μg/mL FMN, 2 μL/ml decanal/ethanol, 50 mM Tris pH 7.5, 0.5% Glycerin, 0.01% Tween-20, 0.05% BSA) was added. Luminescence was measured on a luminescent reader (10 seconds measuring time, 1 second integration period, 30% sensitivity). The decrease in luminescence is proportional to mIDH1 activity. IC50 values are determined by interpolation from plots of relative luminescence versus inhibitor concentration.

Chain of IDH1 R132H enzyme (O75874 whole entry R132H): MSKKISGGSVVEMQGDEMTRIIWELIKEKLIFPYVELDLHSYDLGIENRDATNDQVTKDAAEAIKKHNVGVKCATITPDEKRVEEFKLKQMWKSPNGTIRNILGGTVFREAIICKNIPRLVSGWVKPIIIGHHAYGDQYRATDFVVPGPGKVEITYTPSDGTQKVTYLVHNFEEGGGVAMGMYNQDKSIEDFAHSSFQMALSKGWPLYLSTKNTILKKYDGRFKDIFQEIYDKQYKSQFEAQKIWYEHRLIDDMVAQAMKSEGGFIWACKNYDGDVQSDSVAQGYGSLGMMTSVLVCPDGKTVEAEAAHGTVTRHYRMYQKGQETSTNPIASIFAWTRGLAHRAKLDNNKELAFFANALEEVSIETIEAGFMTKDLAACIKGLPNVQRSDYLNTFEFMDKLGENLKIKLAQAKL

Compound	IC50
COc1cc2c(cc1CO)nc(Nc1ccc(OC(F)(F)F)cc1)n2[C@H]1C[C@@H](C)CC(C)(C)C1 (racemic) [Example 2-6, (±) (6-methoxy-2-{[4-(trifluoromethoxy)phenyl]amino}-1-[(cis)-3,3,5-trimethylcyclohexyl]-1H-benzimidazol-5-yl)methanol]	20 nM
COc1cc2c(cc1C(C)(C)O)nc(Nc1ccc(OC(F)(F)F)cc1)n2[C@H]1C[C@@H](C)CC(C)(C)C1 (racemic) [Example 2-7, (±) 2-(6-methoxy-2-{[4-(trifluoromethoxy)phenyl]amino}-1-[(cis)-3,3,5-trimethylcyclohexyl]-1H-benzimidazol-5-yl)propan-2-ol]	20 nM
Cc1cc2c(cc1CC(C)(C)O)nc(Nc1ccc(OC(F)(F)F)cc1)n2[C@H]1C[C@@H](C)CC(C)(C)C1 (racemic) [Example 2-8, (±) 2-methyl-1-(6-methyl-2-{[4-(trifluoromethoxy)phenyl]amino}-1-[(cis)-3,3,5-trimethylcyclohexyl]-1H-benzimidazol-5-yl)propan-2-ol]	30 nM
COc1cc2c(cc1CC(C)(C)O)nc(Nc1ccc(OC(F)(F)F)cc1)n2[C@H]1C[C@@H](C)CC(C)(C)C1 (racemic) [Example 2-9, (±) 1-(6-methoxy-2-{[4-(trifluoromethoxy)phenyl]amino}-1-[(cis)-3,3,5-trimethylcyclohexyl]-1H-benzimidazol-5-yl)-2-methylpropan-2-ol]	20 nM
Cc1cc2c(cc1C(C)(C)O)nc(Nc1ccc(OC(F)(F)F)cc1)n2[C@H]1C[C@@H](C)CC(C)(C)C1 (single isomer, unassigned; enantiomer a) [Example 2-3-1, 2-(6-methyl-2-{[4-(trifluoromethoxy)phenyl]amino}-1-[(cis)-3,3,5-trimethylcyclohexyl]-1H-benzimidazol-5-yl)propan-2-ol, enantiomer A]	80 nM
Cc1cc2c(cc1CC(C)(C)O)nc(Nc1ccc(OC(F)(F)F)cc1)n2[C@H]1C[C@@H](C)CC(C)(C)C1 (single isomer, unassigned; enantiomer a) [Example 2-8-1, 2-methyl-1-(6-methyl-2-{[4-(trifluoromethoxy)phenyl]amino}-1-[(cis)-3,3,5-trimethylcyclohexyl]-1H-benzimidazol-5-yl)propan-2-ol, enantiomer A]	120 nM
COc1cc2c(cc1CC(C)(C)O)nc(Nc1ccc(OC(F)(F)F)cc1)n2[C@H]1C[C@@H](C)CC(C)(C)C1 (single isomer, unassigned; enantiomer a) [Example 2-9-1, 1-(6-methoxy-2-{[4-(trifluoromethoxy)phenyl]amino}-1-[(cis)-3,3,5-trimethylcyclohexyl]-1H-benzimidazol-5-yl)-2-methylpropan-2-ol, enantiomer A]	30 nM
C[C@@H]1C[C@H](n2c(Nc3ccc(OC(F)(F)F)cc3)nc3cc(CO)ccc32)CC(C)(C)C1 (single isomer, unassigned; enantiomer b) [Example 2-1-2, (2-{[4-(trifluoromethoxy)phenyl]amino}-1-[(cis)-3,3,5-trimethylcyclohexyl]-1H-benzimidazol-5-yl)methanol, enantiomer B]	70 nM
Cc1cc2c(cc1C(C)(C)O)nc(Nc1ccc(OC(F)(F)F)cc1)n2[C@H]1C[C@@H](C)CC(C)(C)C1 (single isomer, unassigned; enantiomer b) [Example 2-3-2, 2-(6-methyl-2-{[4-(trifluoromethoxy)phenyl]amino}-1-[(cis)-3,3,5-trimethylcyclohexyl]-1H-benzimidazol-5-yl)propan-2-ol, enantiomer B]	20 nM
Cc1cc2c(cc1CC(C)(C)O)nc(Nc1ccc(OC(F)(F)F)cc1)n2[C@H]1C[C@@H](C)CC(C)(C)C1 (single isomer, unassigned; enantiomer b) [Example 2-8-2, 2-methyl-1-(6-methyl-2-{[4-(trifluoromethoxy)phenyl]amino}-1-[(cis)-3,3,5-trimethylcyclohexyl]-1H-benzimidazol-5-yl)propan-2-ol, enantiomer B]	10 nM

Now from value to compound:

IC50	Compound
240 nM	C[C@@H]1C[C@H](n2c(Nc3ccc(OC(F)(F)F)cc3)nc3cc(CC(C)(C)O)c(F)cc32)CC(C)(C)C1 (racemic) [Example 2-10, (±) 1-(6-fluoro-2-{[4-(trifluoromethoxy)phenyl]amino}-1-[(cis)-3,3,5-trimethylcyclohexyl]-1H-benzimidazol-5-yl)-2-methylpropan-2-ol]
320 nM	C[C@@H]1C[C@H](n2c(Nc3ccc(OC(F)(F)F)cc3)nc3cc(CC(C)(C)O)c(F)cc32)CC(C)(C)C1 (single isomer, unassigned; enantiomer a) [Example 2-10-1, 1-(6-fluoro-2-{[4-(trifluoromethoxy)phenyl]amino}-1-[(cis)-3,3,5-trimethylcyclohexyl]-1H-benzimidazol-5-yl)-2-methylpropan-2-ol, enantiomer A]
210 nM	C[C@@H]1C[C@H](n2c(Nc3ccc(OC(F)(F)F)cc3)nc3cc(CCC(C)(C)O)ccc32)CC(C)(C)C1 (single isomer, unassigned; enantiomer a) [Example 2-11-1, 2-methyl-4-(2-{[4-(trifluoromethoxy)phenyl]amino}-1-[(cis)-3,3,5-trimethylcyclohexyl]-1H-benzimidazol-5-yl)butan-2-ol, enantiomer A]
50 nM	COc1cc2c(cc1CCC(C)(C)O)nc(Nc1ccc(OC(F)(F)F)cc1)n2[C@H]1C[C@@H](C)CC(C)(C)C1 (single isomer, unassigned; enantiomer a) [Example 2-12-1, 4-(6-methoxy-2-{[4-(trifluoromethoxy)phenyl]amino}-1-[(cis)-3,3,5-trimethylcyclohexyl]-1H-benzimidazol-5-yl)-2-methylbutan-2-ol, enantiomer A]
10 nM	COc1cc2c(cc1CC(C)(C)O)nc(Nc1ccc(OC(F)(F)F)cc1)n2[C@H]1C[C@@H](C)CC(C)(C)C1 (single isomer, unassigned; enantiomer b) [Example 2-9-2, 1-(6-methoxy-2-{[4-(trifluoromethoxy)phenyl]amino}-1-[(cis)-3,3,5-trimethylcyclohexyl]-1H-benzimidazol-5-yl)-2-methylpropan-2-ol, enantiomer B]
10 nM	COc1cc2c(cc1CCC(C)(C)O)nc(Nc1ccc(OC(F)(F)F)cc1)n2[C@H]1C[C@@H](C)CC(C)(C)C1 (single isomer, unassigned; enantiomer b) [Example 2-12-2, 4-(6-methoxy-2-{[4-(trifluoromethoxy)phenyl]amino}-1-[(cis)-3,3,5-trimethylcyclohexyl]-1H-benzimidazol-5-yl)-2-methylbutan-2-ol, enantiomer B]
80 nM	CC(C)[C@@H]1CC[C@@H](C)C[C@H]1n1c(Nc2ccc(OC(F)(F)F)cc2)nc2cc(C(C)(C)O)ccc21 [Example 2-13, 2-(1-[(1R,2S,5R)-2-isopropyl-5-methylcyclohexyl]-2-{[4-(trifluoromethoxy)phenyl]-amino}-1H-benzimidazol-5-yl)propan-2-ol]
120 nM	CC(C)c1ccc(Nc2nc3cc(C(C)(C)O)ccc3n2[C@@H]2C[C@H](C)CC[C@H]2C(C)C)cc1 [Example 2-14, 2-{1-[(1R,2S,5R)-2-isopropyl-5-methylcyclohexyl]-2-[(4-isopropyl-phenyl)amino]-1H-benzimidazol-5-yl}propan-2-ol]
40 nM	CC(C)[C@@H]1CC[C@@H](C)C[C@H]1n1c(Nc2ccc(OC(F)(F)F)cc2)nc2cc(CC(C)(C)O)ccc21 [Example 2-15, 1-(1-[(1R,2S,5R)-2-isopropyl-5-methylcyclohexyl]-2-{[4-(trifluoro-methoxy)phenyl]amino}-1H-benz-imidazol-5-yl)-2-methylpropan-2-ol]
60 nM	CC(C)c1ccc(Nc2nc3cc(CC(C)(C)O)ccc3n2[C@@H]2C[C@H](C)CC[C@H]2C(C)C)cc1 [Example 2-16, 1-{1-[(1R,2S,5R)-2-isopropyl-5-methylcyclohexyl]-2-[(4-isopropyl-phenyl)amino]-1H-benzimidazol-5-yl}-2-methylpropan-2-ol]
160 nM	CC(C)Oc1ccc(Nc2nc3cc(CC(C)(C)O)ccc3n2[C@@H]2C[C@H](C)CC[C@H]2C(C)C)cc1 [Example 2-17, 1-{2-[(4-isopropoxyphenyl)amino]-1-[(1R,2S,5R)-2-isopropyl-5-methylcyclohexyl]-1H-benz-imidazol-5-yl}-2-methylpropan-2-ol]
100 nM	CC(C)[C@@H]1CC[C@@H](C)C[C@H]1n1c(Nc2ccc(OC(F)(F)F)cc2)nc2cc(CCC(C)(C)O)ccc21 [Example 2-18, 4-(1-[(1R,2S,5R)-2-isopropyl-5-methylcyclohexyl]-2-{[4-(trifluoro-methoxy)phenyl]amino}-1H-benz-imidazol-5-yl)-2-methylbutan-2-ol]
290 nM	CC(C)c1ccc(Nc2nc3cc(CCC(C)(C)O)ccc3n2[C@@H]2C[C@H](C)CC[C@H]2C(C)C)cc1 [Example 2-19, 4-{1-[(1R,2S,5R)-2-isopropyl-5-methylcyclohexyl]-2-[(4-isopropyl-phenyl)amino]-1H-benzimidazol-5-yl}-2-methylbutan-2-ol]
300 nM	CC(C)Oc1ccc(Nc2nc3cc(CCC(C)(C)O)ccc3n2[C@@H]2C[C@H](C)CC[C@H]2C(C)C)cc1 [Example 2-20, 4-{2-[(4-isopropoxyphenyl)amino]-1-[(1R,2S,5R)-2-isopropyl-5-methylcyclohexyl]-1H-benzimidazol-5-yl}-2-methylbutan-2-ol]
